This is an account of results in patent US4570005A, “Process for the preparation of 2-arylpropyl ether or thioether derivatives” (priority 1980, dated 1986).

The test system of series [1] is sensitive green rice leafhopper (collected at Chigasaki). The series can be described thus: whole plant or invertebrate. The class given is in vivo. The following applies: Nephotettix cincticeps, read-out: Mortality (%), Green Rice Leafhopper Collected at Chigasaki. On the procedure:
(§1) To a mixture of 20 parts of the compound of the present invention and 20 parts of Sorpol SM-200 (registered tradename for the product supplied by Toho Chemical Industrial Co., Ltd.) was added 60 parts of xylol, and the mixture was suffciently blended. The obtained emulsifiable concentrate was diluted at a predetermined concentration with distilled water, and the obtained dilution was used.
(§2) Seedlings (having 2 to 3 leaves) of paddy rice were hydroponically cultured in a pot having a diameter of 5 cm. A chemical dilution having a concentration of 100 or 20 ppm, prepared in the same manner as described in Test 1, was applied with a sprayer at a rate of 3 ml per pot. The treated seedlings were air-dried and covered with a metal net cylinder, and female adults of resistant green rice leafhopper (collected at Nakagawara) and sensitive green rice leafhopper (collected at Chigasaki) were set, respectively, free in the pot at a density of 10 adults per pot. After 24 hours, the numbers of killed and living adults were counted and the mortality was calculated. The test was made on three pots and the average value was calculated.

Series [2] is described as follows: Test 9: Toxicity Test (acute oral toxicity, mice). The following applies: mouse, in vivo, po. As for the experimental part:
A predetermined amount of a solution or suspension of a test compound in corn oil was orally administered to male mice having a body weight of 19 to 23 g (0.2 ml per 10 g of the body weight). After 7 days, the number of killed mice was counted and the influences on the mice were examined.

For series [3], the system named is resistant green rice leafhopper (collected at Nakagawara). Put plainly: Test 3: Effect on Resistant Green Rice Leafhopper (collected at Nakagawara). The format is in vivo, Nephotettix cincticeps Uhler (Green rice leafhopper). The following applies: Nephotettix cincticeps, 24 h, read-out: Mortality (%), Green Rice Leafhopper Collected at Nakagawara. On the procedure:
as §1, §2

Where [4] appears, read: sensitive female adults, 24 hours.
Where [5] appears, read: 100 ppm, sensitive female adults, 24 hours.

Read-outs that look alike come from different tables or passages of the source.

In the case of `Cc1cccc(C(C)(C)COCc2cccc(Oc3ccc(F)cc3)c2)c1` [Compound 36, 3-(4-Fluorophenoxy)benzyl 2-(3-methylphenyl)-2-methylpropyl ether], the mortality at 20 ppm in series [1] (setting [4]) amounted to 70%; in series [3], 90%. Further, the mortality at 100 ppm turned out to be 95% in series [1] (setting [5]) and 100% in series [3]. The compound further registered a 50% lethal dose (LD50) at 168 h in series [2] of over 500 mg/kg.

`C=C(Cl)c1ccc(C(C)(C)COCc2cccc(Oc3ccccc3)c2)cc1` [Compound 102, 3-Phenoxybenzyl 2-[4-(1-chlorovinyl)phenyl]-2-methylpropyl ether] yielded a median lethal dose (LD50) at 168 h in series [2] of over 500 mg/kg.

Regarding `COc1ccc(C(C)(C)COCc2cccc(Oc3ccc(F)cc3)c2)cc1` [Compound 32, 3-(4-Fluorophenoxy)benzyl 2-(4-methoxyphenyl)-2-methylpropyl ether], the mortality at 20 ppm in series [1] (setting [4]) and in series [3] was 100% each time. For the same compound, the mortality at 100 ppm in series [1] (setting [5]) and in series [3] was 100% each time. This compound registered a median lethal dose (LD50) at 168 h in series [2] of over 500 mg/kg.

As to `CC(C)=Cc1ccc(C(C)(C)COCc2cccc(Oc3ccccc3)c2)cc1` [Compound 91, 3-Phenoxybenzyl 2-[4-(2-methyl-1-propenyl)phenyl]-2-methylpropyl ether], the mortality at 20 ppm in series [1] (setting [4]) and in series [3] was 100% in each case. Besides, the mortality at 100 ppm in series [1] (setting [5]) and in series [3] was 100% throughout. In series [2], this compound yielded an LD50 at 168 h of over 500 mg/kg.

For `COc1ccc(Oc2cccc(COCC(C)(C)c3ccc(OC)cc3)c2)cc1` [Compound 27, 3-(4-Methoxyphenoxy)benzyl 2-(4-methoxyphenyl)-2-methylpropyl ether], the mortality at 20 ppm came out at 50% in series [1] (setting [4]) and 70% in series [3]. Further, the mortality at 100 ppm in series [1] (setting [5]) and in series [3] was 100% throughout. The LD50 at 168 h in series [2] was over 500 mg/kg.

Turning to `CNC(=O)Oc1cccc(C)c1` [Comparative Compound (e), m-tolyl-N-methylcarbamate, reference compound], the mortality at 100 ppm in series [1] (24 h) was found to be 80%. The median lethal dose (LD50) at 168 h in series [2] was 220 mg/kg.

As to `COc1ccc(Oc2cccc(COCC(C)(C)c3ccc(Br)cc3)c2)cc1` [Compound 40, 3-(4-Methoxyphenoxy)benzyl 2-(4-bromophenyl)-2-methylpropyl ether], the mortality at 20 ppm in series [1] (setting [4]) amounted to 50%; in series [3] it was 70%. Moreover, the mortality at 100 ppm in series [1] (setting [5]) and in series [3] was 100% in each case. The 50% lethal dose (LD50) at 168 h in series [2] is over 500 mg/kg.

For `CC(C)(COCc1cccc(Oc2ccc(Br)cc2)c1)c1cccc(C(F)(F)F)c1` [Compound 42, 3-(4-Bromophenoxy)benzyl 2-(3-trifluoromethylphenyl)-2-methylpropyl ether], the mortality at 20 ppm in series [1] (setting [4]) is 95%; in series [3] it was 100%. In addition, the mortality at 100 ppm in series [1] (setting [5]) and in series [3] was 100% each time. This compound returned a 50% lethal dose (LD50) at 168 h in series [2] of over 500 mg/kg.

As for `C=C(CC)c1ccc(C(C)(C)COCc2cccc(Oc3ccccc3)c2)cc1` [Compound 110, 3-Phenoxybenzyl 2-[4-(1-buten-2-yl)phenyl]-2-methylpropyl ether], the 50% lethal dose (LD50) at 168 h in series [2] is over 500 mg/kg.

For `CC(C)(COCc1cccc(Oc2cccc(Cl)c2)c1)c1ccc(Cl)cc1` [Compound 10, 3-(3-Chlorophenoxy)benzyl 2-(4-chlorophenyl)-2-methylpropyl ether], the mortality at 20 ppm in series [1] (setting [4]) and in series [3] was 100% in each case. Further, the mortality at 100 ppm in series [1] (setting [5]) and in series [3] was 100% throughout. This compound registered a median lethal dose (LD50) at 168 h in series [2] of over 500 mg/kg.

With `COc1ccc(Oc2cccc(COCC(C)(C)c3ccc(C)cc3)c2)cc1` [Compound 44, 3-(4-methoxyphenoxy)benzyl 2-(4-methylphenyl)-2-methylpropylether], the mortality at 20 ppm in series [1] (setting [4]) amounted to 80%; in series [3], 95%. Besides, the mortality at 100 ppm in series [1] (setting [5]) and in series [3] was 100% throughout. The compound further yielded a median lethal dose (LD50) at 168 h in series [2] of over 500 mg/kg.

With `CC=C(C)c1ccc(C(C)(C)COCc2cccc(Oc3ccccc3)c2)cc1` [Compound 111, 3-Phenoxybenzyl 2-[4-(2-buten-2-yl)phenyl]-2-methylpropyl ether], the LD50 at 168 h in series [2] was over 500 mg/kg.

In the case of `CC(C)(COCc1cccc(Oc2ccccc2)c1)c1ccc(-c2ccccc2)cc1` [Compound 68, 3-Phenoxybenzyl 2-(4-biphenyl)-2-methylpropyl ether], the mortality at 20 ppm in series [1] (setting [4]) and in series [3] was 100% each time. In addition, the mortality at 100 ppm in series [1] (setting [5]) and in series [3] was 100% each time. In series [2], this compound showed an LD50 at 168 h of over 500 mg/kg.

In the case of `CC(C)c1ccc(C(C)(C)COCc2cccc(Oc3ccccc3)c2)cc1` [Compound 63, 3-Phenoxybenzyl 2-(4-isopropylphenyl)-2-methylpropyl ether], the mortality at 20 ppm in series [1] (setting [4]) turned out to be 95%; in series [3], 100%. Also, the mortality at 100 ppm in series [1] (setting [5]) and in series [3] was 100% throughout. Further, the LD50 at 168 h in series [2] was over 500 mg/kg.

Consider `COc1ccc(C(C)(C)COCc2cccc(Oc3ccccc3)c2)cc1OC` [Compound 88, 3-Phenoxybenzyl 2-(3,4-dimethoxyphenyl)-2-methylpropyl ether], for which the mortality at 20 ppm worked out at 60% in series [1] (setting [4]) and 80% in series [3]. Further, the mortality at 100 ppm in series [1] (setting [5]) and in series [3] was 100% each time. The compound further yielded a 50% lethal dose (LD50) at 168 h in series [2] of over 500 mg/kg.

Take `Cc1cccc(Oc2cccc(COCC(C)(C)c3ccc(Cl)cc3)c2)c1` [Compound 26, 3-(3-Methylphenoxy)benzyl 2-(4-chlorophenyl)-2-methylpropyl ether]: the results for the mortality at 20 ppm in series [1] (setting [4]) and in series [3] were 60% and 85%, respectively. Besides, the mortality at 100 ppm in series [1] (setting [5]) and in series [3] was 100% in each case. The same compound came in with a 50% lethal dose (LD50) at 168 h in series [2] of over 500 mg/kg.

Regarding `CC(C)c1ccc(C(C)(C)COCc2cccc(Oc3ccc(F)cc3)c2)cc1` [Compound 77, 3-(4-Fluorophenoxy)benzyl 2-(4-isopropylphenyl)-2-methylpropyl ether], the mortality at 20 ppm in series [1] (setting [4]) was found to be 70%; in series [3], 85%. Moreover, the mortality at 100 ppm in series [1] (setting [5]) and in series [3] was 100% in each case. Moreover, the median lethal dose (LD50) at 168 h in series [2] was over 500 mg/kg.

For `CC(C)(COCc1cccc(Oc2ccccc2)c1)c1ccc(OC2CCCCC2)cc1` [Compound 72, 3-Phenoxybenzyl 2-(4-cyclohexyloxyphenyl)-2-methylpropyl ether], the mortality at 20 ppm in series [1] (setting [4]) came out at 65%; in series [3], 80%. Besides, the mortality at 100 ppm in series [1] (setting [5]) and in series [3] was 100% each time. In series [2], this compound displayed an LD50 at 168 h of over 500 mg/kg.

The compound `CCOCCOc1ccc(C(C)(C)COCc2cccc(Oc3ccccc3)c2)cc1` [Compound 89, 3-Phenoxybenzyl 2-[4-(2-ethoxyethoxy)phenyl]-2-methylpropyl ether] came in with an LD50 at 168 h in series [2] of over 500 mg/kg.

The compound `COCc1ccc(C(C)(C)COCc2cccc(Oc3ccccc3)c2)cc1` [Compound 80, 3-Phenoxybenzyl 2-(4-methoxymethylphenyl)-2-methylpropyl ether] came in with a median lethal dose (LD50) at 168 h in series [2] of over 500 mg/kg.

Consider `COc1ccc(Oc2cccc(COCC(C)(C)c3ccc(Cl)cc3)c2)cc1` [Compound 34, 3-(4-Methoxyphenoxy)benzyl 2-(4-chlorophenyl)-2-methylpropyl ether], for which the mortality at 20 ppm in series [1] (setting [4]) stood at 90%; in series [3], 100%. Moreover, the mortality at 100 ppm in series [1] (setting [5]) and in series [3] was 100% each time. In addition, the 50% lethal dose (LD50) at 168 h in series [2] was over 500 mg/kg.

`CC(C)(COCc1cccc(Oc2ccccc2)c1)c1ccc(C(=O)OCC(F)(F)F)cc1` [Compound 106, 3-Phenoxybenzyl 2-[4-(2,2,2-trifluoroethoxycarbonyl)-phenyl]-2-methylpropylether] showed an LD50 at 168 h in series [2] of over 500 mg/kg.

`C=C(C)c1ccc(C(C)(C)COCc2cccc(Oc3ccccc3)c2)cc1` [Compound 87, 3-Phenoxybenzyl 2-(4-isopropenylphenyl)-2-methylpropyl ether]: in series [2], the median lethal dose (LD50) at 168 h is over 500 mg/kg.

Take `CC(C)(COCc1cccc(Oc2ccc(F)cc2)c1)c1ccccc1` [Compound 28, 3-(4-Fluorophenoxy)benzyl 2-phenyl-2-methylpropyl ether]: the mortality at 20 ppm in series [1] (setting [4]) is 75%; in series [3], 90%. Moreover, the mortality at 100 ppm in series [1] (setting [5]) and in series [3] was 100% in each case. The compound further gave an LD50 at 168 h in series [2] of over 500 mg/kg.
